Assay results as given in ChEMBL document CHEMBL4118101 (Bioorg Med Chem, 2018).
≈ marks a conversion by molar mass, not a printed value. Calls of active or inactive are those of the source. No cut-off for these calls is given here.

What was measured:
Cryptococcus neoformans [1] = assay: Antifungal activity against Cryptococcus neoformans isolate CN2 measured after 48 hrs by CLSI M27-A3 protocol based method; type: functional
[2] = Hemolytic activity in mouse RBC at 3.9 ug/ml after 1 hr relative to control; type: ADME, cell-based, Erythrocyte; conditions: mouse red blood cells (erythrocytes), read-out: Activity
Candida parapsilosis [3] = assay: Antifungal activity against Candida parapsilosis ATCC 22019 measured after 48 hrs in presence of 10% FBS by CLSI M27-A3 protocol based method; type: functional
Candida albicans [4] = assay: Antifungal activity against fluconazole/ITC-resistant Candida albicans ATCC MYA-1237 measured after 48 hrs by CLSI M27-A3 protocol based method; type: functional
[5] = Hemolytic activity in mouse RBC at 1.95 ug/ml after 1 hr relative to control; type: ADME, cell-based, Erythrocyte; conditions: mouse red blood cells (erythrocytes), at 1.95 µg/mL, read-out: Activity
Candida albicans [6] = assay: Antifungal activity against fluconazole/ITC-resistant Candida albicans ATCC 90819 measured after 48 hrs by CLSI M27-A3 protocol based method; type: functional
Candida albicans [7] = assay: Antifungal activity against fluconazole/ITC-susceptible Candida albicans ATCC MYA-2310 measured after 48 hrs by CLSI M27-A3 protocol based method; type: functional
Candida albicans [8] = assay: Antifungal activity against fluconazole/ITC-resistant Candida albicans ATCC MYA-1003 measured after 48 hrs by CLSI M27-A3 protocol based method; type: functional
Candida albicans [9] = assay: Antifungal activity against Candida albicans ATCC 64124 measured after 48 hrs by CLSI M27-A3 protocol based method; type: functional
[10] = Cytotoxicity against HEK293 cells assessed as cell survival at 3.9 ug/ml after 24 hrs by resazurin based assay relative to control; conditions: human, read-out: Survival
A549 = assay: Cytotoxicity against human A549 cells up to 7.8 ug/ml after 24 hrs by resazurin based assay; type: cell-based; conditions: a549, 24 h
Candida parapsilosis [11] = assay: Antifungal activity against Candida parapsilosis isolate CP1 measured after 48 hrs by CLSI M27-A3 protocol based method; type: functional
Candida parapsilosis [12] = assay: Antifungal activity against Candida parapsilosis isolate CP2 measured after 48 hrs by CLSI M27-A3 protocol based method; type: functional
Nakaseomyces glabratus [13] = assay: Antifungal activity against Candida glabrata isolate CG1 measured after 48 hrs by CLSI M27-A3 protocol based method; type: functional
Candida albicans [14] = conditions: ATCC 10231, 0.975 ug/ml
Aspergillus nidulans [15] = assay: Antifungal activity against Aspergillus nidulans ATCC 38163 measured after 48 hrs by CLSI M38-A2 protocol based method; type: functional; conditions: ATCC 38163, 48 h
Aspergillus nidulans [16] = assay: Antifungal activity against Aspergillus nidulans ATCC 38163 measured after 48 hrs in presence of 10% FBS by CLSI M38-A2 protocol based method; type: functional; conditions: ATCC 38163, 48 h
Nakaseomyces glabratus [17] = assay: Antifungal activity against Candida glabrata isolate CG3 measured after 48 hrs by CLSI M27-A3 protocol based method; type: functional
Candida albicans [18] = conditions: ATCC 10231, 0.975 ug/ml; remark: listed apart in the source
BEAS-2B = assay: Cytotoxicity against human BEAS2B cells up to 7.8 ug/ml after 24 hrs by resazurin based assay; type: cell-based
[19] = Hemolytic activity in mouse RBC at […] ug/ml after 1 hr relative to control; type: ADME, cell-based, Erythrocyte; conditions: mouse red blood cells (erythrocytes), read-out: Activity
Cryptococcus neoformans [20] = assay: Antifungal activity against Cryptococcus neoformans isolate CN3 measured after 48 hrs by CLSI M27-A3 protocol based method; type: functional
[21] = Hemolytic activity in mouse RBC at 31.3 ug/ml after 1 hr relative to control; type: ADME, cell-based, Erythrocyte; conditions: mouse red blood cells (erythrocytes), at 31.3 µg/mL, read-out: Activity
Pichia kudriavzevii = assay: Antifungal activity against Candida krusei ATCC 6258 measured after 48 hrs by CLSI M27-A3 protocol based method; type: functional
Cryptococcus neoformans [22] = assay: Antifungal activity against Cryptococcus neoformans isolate CN1 measured after 48 hrs by CLSI M27-A3 protocol based method; type: functional; conditions: isolate CN1, 48 h
Candida albicans [23] = assay: Antifungal activity against Candida albicans ATCC 10231 measured after 48 hrs in presence of 10% FBS by CLSI M27-A3 protocol based method; type: functional
Candida albicans [24] = assay: Induction of membrane permeabilization in Candida albicans ATCC 10231 assessed as membrane disruption at 4 times MIC after 1 hr by propidium iodide staining based fluorescence microscopy; type: functional, organism-based
Candida parapsilosis [25] = assay: Antifungal activity against Candida parapsilosis isolate CP3 measured after 48 hrs by CLSI M27-A3 protocol based method; type: functional
Aspergillus flavus = assay: Antifungal activity against Aspergillus flavus ATCC MYA-3631 measured after 48 hrs by CLSI M38-A2 protocol based method; type: functional; conditions: ATCC MYA-3631, 48 h
Candida albicans [26] = conditions: ATCC 10231, 0.975 ug/ml; remark: listed apart in the source
[27] = Hemolytic activity in mouse RBC at 0.48 ug/ml after 1 hr relative to control; type: ADME, cell-based, Erythrocyte; conditions: mouse red blood cells (erythrocytes), read-out: Activity
Candida albicans [28] = conditions: ATCC 10231, 0.975 ug/ml; remark: listed apart in the source
Nakaseomyces glabratus [29] = assay: Antifungal activity against Candida glabrata ATCC 2001 measured after 48 hrs by CLSI M27-A3 protocol based method; type: functional, CBS 138
[30] = (§1) Hemolytic activity in mouse RBC at 62.5 ug/ml after 1 hr relative to control; type: ADME, cell-based, Erythrocyte; conditions: mouse red blood cells (erythrocytes), read-out: Activity
Candida parapsilosis [31] = assay: Antifungal activity against Candida parapsilosis ATCC 22019 measured after 48 hrs by CLSI M27-A3 protocol based method; type: functional
Aspergillus terreus = assay: Antifungal activity against Aspergillus terreus ATCC MYA-3633 measured after 48 hrs by CLSI M38-A2 protocol based method; type: functional; conditions: ATCC MYA-3633, 48 h
[32] = Hemolytic activity in mouse RBC at 7.8 ug/ml after 1 hr relative to control; type: ADME, cell-based, Erythrocyte; conditions: mouse red blood cells (erythrocytes), read-out: Activity
Candida albicans [33] = assay: Antifungal activity against fluconazole/ITC-susceptible Candida albicans ATCC MYA-2876 measured after 48 hrs by CLSI M27-A3 protocol based method; type: functional
Nakaseomyces glabratus [34] = assay: Antifungal activity against Candida glabrata isolate CG2 measured after 48 hrs by CLSI M27-A3 protocol based method; type: functional
Candida albicans [35] = assay: Antifungal activity against Candida albicans ATCC 10231 measured after 48 hrs by CLSI M27-A3 protocol based method; type: functional; conditions: ATCC 10231, 48 h
Candida parapsilosis [36] = assay: Fungistatic activity against Candida parapsilosis ATCC 22019 up to 4 times MIC incubated for 24 hrs by time kill assay; type: functional, organism-based
Candida albicans [37] = assay: Inhibition of Candida albicans ATCC 10231 ERG11 assessed as eburicol composition of total sterols at 0.12 ug/ml incubated for 10 mins followed by saponification for 2 hrs by GC-MS method relative to control; set-up: scale not given: the % may be the effect or the level left
Candida albicans [38] = assay: Fungistatic activity against Candida albicans ATCC 10231 at 4 times MIC incubated for 24 hrs by time kill assay; type: functional, organism-based
Candida albicans [39] = assay: Inhibition of Candida albicans ATCC 10231 ERG11 assessed as 14alphamethyl ergosta-8,24(28)-diene-3beta,6alpha-diol composition of total sterols at 0.12 ug/ml incubated for 10 mins followed by saponification for 2 hrs by GC-MS method relative to control; set-up: scale not given: the % may be the effect or the level left
Candida albicans [40] = assay: Inhibition of Candida albicans ATCC 10231 ERG11 assessed as lanosterol composition of total sterols at 0.12 ug/ml incubated for 10 mins followed by saponification for 2 hrs by GC-MS method relative to control; set-up: scale not given: the % may be the effect or the level left
Erythrocyte = assay: as §1; type: ADME, cell-based; conditions: erythrocyte, 1 h
Candida albicans [41] = assay: Inhibition of Candida albicans ATCC 10231 ERG11 assessed as ergosterol composition of total sterols at 0.12 ug/ml incubated for 10 mins followed by saponification for 2 hrs by GC-MS method (reference value: 100%); set-up: scale not given: the % may be the effect or the level left
[42] = Lodderomyces parapsilosis, ATCC 22019, 48 h
[43] = Nakaseomyces glabratus, 48 h, read-out: MIC

## CCCCCCCCCCCCCCNCC(O)(Cn1cncn1)c1ccc(F)cc1F (configuration not stated)
Cryptococcus neoformans [1]; Cryptococcus neoformans, isolate CN2, 48 h, read-out: MIC
  MIC: 0.53 µM (≈ 0.239 µg/mL)
[2]
  hemolysis at 1 h, 3.9 ug/ml: 10%
Candida parapsilosis [3]; [42]
  MIC: 0.975 µg/mL
Candida albicans [4]; Candida albicans, ATCC MYA-1237, 48 h, read-out: MIC
  MIC: > 69.5 µM
[5]
  hemolysis at 1 h, 1.95 ug/ml: 3%
Candida albicans [6]; Candida albicans, ATCC 90819, 48 h, read-out: MIC
  MIC: 17.3 µM (≈ 7.8 µg/mL)
Candida albicans [7]; Candida albicans, ATCC MYA-2310, 48 h, read-out: MIC
  MIC: 69.5 µM (≈ 31.3 µg/mL)
Candida albicans [8]; Candida albicans, ATCC MYA-1003, 48 h, read-out: MIC
  MIC: 69.5 µM (≈ 31.3 µg/mL)
Candida albicans [9]; Candida albicans, ATCC 64124, 48 h, read-out: MIC
  MIC: > 69.5 µM
[10]
  viability at 24 h, 3.9 ug/ml: > 50%
A549
  Activity: Non-Toxic
Candida parapsilosis [11]; Lodderomyces parapsilosis, isolate CP1, 48 h
  MIC: 1.1 µM (≈ 0.496 µg/mL)
Candida parapsilosis [12]; Lodderomyces parapsilosis, isolate CP2, 48 h
  MIC: 2.2 µM (≈ 0.991 µg/mL)
Nakaseomyces glabratus [13]; [43]
  MIC: 4.3 µM (≈ 1.94 µg/mL)
Candida albicans [14]
  Activity: 8.33%
Aspergillus nidulans [15]
  MIC: 8.7 µM (≈ 3.92 µg/mL)
Aspergillus nidulans [16]
  MIC: 31.2 µg/mL
Nakaseomyces glabratus [17]; [43]
  MIC: 8.7 µM (≈ 3.92 µg/mL)
Candida albicans [18]
  Activity: 1.16%
BEAS-2B
  Activity: Non-Toxic
[19]
  hemolysis at 1 h, 0.975 ug/ml: 6%
  hemolysis at 1 h, 15.6 ug/ml: 29%
Cryptococcus neoformans [20]; Cryptococcus neoformans, isolate CN3, 48 h, read-out: MIC
  MIC: 1.1 µM (≈ 0.496 µg/mL)
[21]
  hemolysis at 1 h, 31.3 ug/ml: < 50%
Pichia kudriavzevii; Pichia kudriavzevii, ATCC 6258, 48 h
  MIC: 8.7 µM (≈ 3.92 µg/mL)
Cryptococcus neoformans [22]
  MIC: 0.27 µM (≈ 0.122 µg/mL)
Candida albicans [23]; Candida albicans, ATCC 10231, 48 h
  MIC: 7.8 µg/mL
Candida albicans [24]
  Activity: inactive
Candida parapsilosis [25]; Lodderomyces parapsilosis, isolate CP3, 48 h
  MIC: 1.1 µM (≈ 0.496 µg/mL)
Aspergillus flavus
  MIC: > 69.5 µM
Candida albicans [26]
  Activity: 36.4%
[27]
  hemolysis at 1 h, 0.48 ug/ml: 2%
Candida albicans [28]
  Activity: 15.6%
Nakaseomyces glabratus [29]; Nakaseomyces glabratus, CBS 138, 48 h, read-out: MIC
  MIC: 2.2 to 4.3 µM (≈ 0.991 to 1.94 µg/mL)
[30]
  hemolysis at 1 h, 62.5 ug/ml: 77%
Candida parapsilosis [31]; [42]
  MIC: 1.1 µM (≈ 0.496 µg/mL)
Aspergillus terreus
  MIC: 17.3 µM (≈ 7.8 µg/mL)
[32]
  hemolysis at 1 h, 7.8 ug/ml: 17%
Candida albicans [33]; Candida albicans, ATCC MYA-2876, 48 h
  MIC: > 69.5 µM
Nakaseomyces glabratus [34]; Nakaseomyces glabratus, isolate CG2, 48 h, read-out: MIC
  MIC: 4.3 µM (≈ 1.94 µg/mL)
Candida albicans [35]
  MIC: 4.3 µM (≈ 1.94 µg/mL)

## C[C@@H](c1ncncc1F)[C@](O)(Cn1cncn1)c1ccc(F)cc1F [VORICONAZOLE]
Cryptococcus neoformans [1]
  MIC: 2.76 µM (≈ 0.964 µg/mL)
Candida parapsilosis [36]
  Activity: Active
Candida albicans [37]
  Activity: 1.73%
[2]
  hemolysis at 1 h, 3.9 ug/ml: 7%
Candida parapsilosis [3]
  MIC=<50: 0.015 µg/mL
Candida albicans [4]
  MIC: 22.3 µM (≈ 7.79 µg/mL)
[5]
  hemolysis at 1 h, 1.95 ug/ml: 6%
Candida albicans [6]
  MIC: 5.6 µM (≈ 1.96 µg/mL)
Candida albicans [7]
  MIC: 2.8 µM (≈ 0.978 µg/mL)
Candida albicans [38]
  Activity: Active
Candida albicans [8]
  MIC: 5.6 µM (≈ 1.96 µg/mL)
Candida albicans [9]
  MIC: 11.2 µM (≈ 3.91 µg/mL)
Candida albicans [39]
  Activity: 9.86%
Candida parapsilosis [11]
  MIC=<50: <0.06 µM
Candida parapsilosis [12]
  MIC=<50: <0.06 µM
Nakaseomyces glabratus [13]
  MIC: 2.76 µM (≈ 0.964 µg/mL)
Aspergillus nidulans [15]
  MIC: 0.34 µM (≈ 0.119 µg/mL)
Aspergillus nidulans [16]
  MIC: 0.12 µg/mL
Nakaseomyces glabratus [17]
  MIC: >89.9 µM
Candida albicans [40]
  Activity: 15.2%
[19]
  hemolysis at 1 h, 0.975 ug/ml: 10%
  hemolysis at 1 h, 15.6 ug/ml: 3%
Cryptococcus neoformans [20]
  MIC: 0.35 µM (≈ 0.122 µg/mL)
Pichia kudriavzevii
  MIC=<50: 0.34 µM (≈ 0.119 µg/mL)
Candida albicans [23]
  MIC=<50: 0.48 µg/mL
Candida albicans [24]
  Activity: inactive
Candida parapsilosis [25]
  MIC=<50: <0.06 µM
[27]
  hemolysis at 1 h, 0.48 ug/ml: 9%
Nakaseomyces glabratus [29]
  MIC: 0.17 to 0.69 µM
Erythrocyte
  Activity: 100%
Candida parapsilosis [31]
  MIC=<50: <0.06 µM
Candida albicans [41]
  Activity: 50.8%
Aspergillus terreus
  MIC: 0.34 µM (≈ 0.119 µg/mL)
[32]
  hemolysis at 1 h, 7.8 ug/ml: 11%
Candida albicans [33]
  MIC=<50: 5.6 µM (≈ 1.96 µg/mL)
Nakaseomyces glabratus [34]
  MIC: 11.2 µM (≈ 3.91 µg/mL)
